ChEMBL document CHEMBL5465560, “Selectivity Literature for EUbOPEN Chemogenomic Library” (2024)
pIC50: −log10 of the molar value.

What was measured:
[1] = molecular target: Tyrosine-protein kinase JAK2 (Homo sapiens, UniProt O60674); experiment: Selectivity interaction (Enyzmatic assay) EUB0000601a JAK2
[2] = molecular target: T1, Bone morphogenetic protein receptor type-2 (Homo sapiens) (UniProt Q13873); experiment: Selectivity interaction (Ambit KINOMEscan and KiNATiv profiling in Jurkat cells) EUB0000090b BMPR2; assay type: cell-based; conditions: at 1 µM
T1 sequence (whole entry): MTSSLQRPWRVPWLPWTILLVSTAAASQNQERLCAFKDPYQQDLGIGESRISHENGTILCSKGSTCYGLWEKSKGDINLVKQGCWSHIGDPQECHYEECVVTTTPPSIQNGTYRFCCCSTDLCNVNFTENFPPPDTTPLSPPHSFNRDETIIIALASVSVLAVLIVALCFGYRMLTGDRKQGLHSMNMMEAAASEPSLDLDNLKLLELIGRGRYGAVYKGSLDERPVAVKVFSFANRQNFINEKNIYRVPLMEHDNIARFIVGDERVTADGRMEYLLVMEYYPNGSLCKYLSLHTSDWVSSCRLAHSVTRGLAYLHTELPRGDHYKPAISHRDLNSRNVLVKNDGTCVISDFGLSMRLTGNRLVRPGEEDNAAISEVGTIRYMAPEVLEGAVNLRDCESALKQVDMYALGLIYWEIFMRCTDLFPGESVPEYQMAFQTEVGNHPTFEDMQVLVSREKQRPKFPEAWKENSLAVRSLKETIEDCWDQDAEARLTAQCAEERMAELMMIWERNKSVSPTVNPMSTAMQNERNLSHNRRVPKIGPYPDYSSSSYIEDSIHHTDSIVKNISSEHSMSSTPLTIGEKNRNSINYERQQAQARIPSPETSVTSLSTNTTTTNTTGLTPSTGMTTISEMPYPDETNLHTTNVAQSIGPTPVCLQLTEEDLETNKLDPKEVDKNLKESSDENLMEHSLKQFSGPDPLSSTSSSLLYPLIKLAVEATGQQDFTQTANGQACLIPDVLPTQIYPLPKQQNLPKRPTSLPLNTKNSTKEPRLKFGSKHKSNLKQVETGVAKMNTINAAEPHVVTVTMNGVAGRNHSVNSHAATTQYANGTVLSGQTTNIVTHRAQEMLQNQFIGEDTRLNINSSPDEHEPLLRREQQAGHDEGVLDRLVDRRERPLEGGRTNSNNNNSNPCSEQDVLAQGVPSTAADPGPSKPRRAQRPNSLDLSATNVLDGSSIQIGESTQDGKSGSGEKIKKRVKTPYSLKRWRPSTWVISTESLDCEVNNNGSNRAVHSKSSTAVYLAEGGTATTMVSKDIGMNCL

[3] = molecular target: Dual specificity protein kinase CLK3 (Homo sapiens, UniProt P49761); conditions: at 10 µM
Dual specificity protein kinase CLK3, sequence (P49761 whole entry, looked up): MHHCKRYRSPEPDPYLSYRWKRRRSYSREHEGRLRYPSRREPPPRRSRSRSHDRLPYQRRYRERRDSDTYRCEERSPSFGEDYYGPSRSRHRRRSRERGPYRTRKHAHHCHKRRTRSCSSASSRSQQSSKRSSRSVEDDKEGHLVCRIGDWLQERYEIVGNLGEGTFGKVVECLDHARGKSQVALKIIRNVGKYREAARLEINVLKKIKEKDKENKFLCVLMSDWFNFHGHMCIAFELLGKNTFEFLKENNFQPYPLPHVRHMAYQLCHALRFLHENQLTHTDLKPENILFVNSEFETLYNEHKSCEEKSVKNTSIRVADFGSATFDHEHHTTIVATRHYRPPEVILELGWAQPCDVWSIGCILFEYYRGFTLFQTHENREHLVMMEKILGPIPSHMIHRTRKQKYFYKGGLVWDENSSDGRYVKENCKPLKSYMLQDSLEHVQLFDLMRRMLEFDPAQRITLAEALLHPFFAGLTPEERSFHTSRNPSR

[4] = molecular target: Calcium/calmodulin-dependent protein kinase kinase 1 (Homo sapiens) (UniProt Q8N5S9); conditions: at 10 µM
Calcium/calmodulin-dependent protein kinase kinase 1 (Homo sapiens), sequence (Q8N5S9 whole entry, looked up): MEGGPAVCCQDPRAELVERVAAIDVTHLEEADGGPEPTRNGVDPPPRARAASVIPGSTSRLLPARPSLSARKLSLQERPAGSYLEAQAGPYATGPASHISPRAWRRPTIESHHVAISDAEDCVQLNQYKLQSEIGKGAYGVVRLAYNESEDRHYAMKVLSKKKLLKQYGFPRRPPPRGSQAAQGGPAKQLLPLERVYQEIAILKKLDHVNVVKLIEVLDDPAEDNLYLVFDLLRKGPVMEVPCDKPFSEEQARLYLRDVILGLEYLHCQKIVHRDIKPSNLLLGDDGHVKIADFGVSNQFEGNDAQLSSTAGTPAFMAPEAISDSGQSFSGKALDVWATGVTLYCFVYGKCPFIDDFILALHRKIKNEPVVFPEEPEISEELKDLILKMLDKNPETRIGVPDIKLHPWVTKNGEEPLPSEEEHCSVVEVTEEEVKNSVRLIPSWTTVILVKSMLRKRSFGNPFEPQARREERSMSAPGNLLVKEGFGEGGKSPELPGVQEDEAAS

[5] = molecular target: Serine/threonine-protein kinase PRP4 homolog (Homo sapiens) (UniProt Q13523); experiment: Selectivity interaction (ActivX KiNativ screen (kinase selectivity in THP-1 cell lysates)) EUB0000639a PRPF4; assay type: subcellular; conditions: lysate, at 1 µM
Serine/threonine-protein kinase PRP4 homolog (Homo sapiens), sequence (Q13523 whole entry): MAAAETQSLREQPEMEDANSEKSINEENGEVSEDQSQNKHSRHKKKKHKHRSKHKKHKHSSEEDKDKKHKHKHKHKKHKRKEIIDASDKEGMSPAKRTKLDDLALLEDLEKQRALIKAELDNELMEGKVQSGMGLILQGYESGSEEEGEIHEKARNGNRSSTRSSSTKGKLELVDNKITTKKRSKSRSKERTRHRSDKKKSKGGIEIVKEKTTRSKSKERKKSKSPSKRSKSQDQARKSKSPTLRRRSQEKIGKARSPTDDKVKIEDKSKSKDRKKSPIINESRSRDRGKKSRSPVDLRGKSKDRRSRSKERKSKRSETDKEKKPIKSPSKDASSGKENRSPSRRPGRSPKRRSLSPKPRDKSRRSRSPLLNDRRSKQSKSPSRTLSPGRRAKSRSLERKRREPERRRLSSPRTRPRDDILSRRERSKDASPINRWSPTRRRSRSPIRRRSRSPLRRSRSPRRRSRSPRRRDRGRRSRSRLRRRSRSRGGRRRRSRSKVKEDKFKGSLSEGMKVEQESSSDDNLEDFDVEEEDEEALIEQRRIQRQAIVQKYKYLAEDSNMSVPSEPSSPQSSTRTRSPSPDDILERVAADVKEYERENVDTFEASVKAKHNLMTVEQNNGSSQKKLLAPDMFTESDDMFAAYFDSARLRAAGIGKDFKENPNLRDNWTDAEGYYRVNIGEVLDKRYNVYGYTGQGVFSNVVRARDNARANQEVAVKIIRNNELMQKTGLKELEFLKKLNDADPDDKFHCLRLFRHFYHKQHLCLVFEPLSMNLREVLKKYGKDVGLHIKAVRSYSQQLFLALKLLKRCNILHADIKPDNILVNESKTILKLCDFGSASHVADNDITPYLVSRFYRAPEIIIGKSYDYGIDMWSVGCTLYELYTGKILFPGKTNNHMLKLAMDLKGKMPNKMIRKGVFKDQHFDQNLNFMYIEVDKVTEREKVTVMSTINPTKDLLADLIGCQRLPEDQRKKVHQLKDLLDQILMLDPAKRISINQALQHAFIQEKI

[6] = molecular target: Mitogen-activated protein kinase kinase kinase 1 (Homo sapiens, UniProt Q13233); experiment: Selectivity interaction (KinomeScan (DiscoverX)) EUB0000229b MAP3K1; conditions: at 10 µM
Mitogen-activated protein kinase kinase kinase 1, sequence (Q13233 whole entry): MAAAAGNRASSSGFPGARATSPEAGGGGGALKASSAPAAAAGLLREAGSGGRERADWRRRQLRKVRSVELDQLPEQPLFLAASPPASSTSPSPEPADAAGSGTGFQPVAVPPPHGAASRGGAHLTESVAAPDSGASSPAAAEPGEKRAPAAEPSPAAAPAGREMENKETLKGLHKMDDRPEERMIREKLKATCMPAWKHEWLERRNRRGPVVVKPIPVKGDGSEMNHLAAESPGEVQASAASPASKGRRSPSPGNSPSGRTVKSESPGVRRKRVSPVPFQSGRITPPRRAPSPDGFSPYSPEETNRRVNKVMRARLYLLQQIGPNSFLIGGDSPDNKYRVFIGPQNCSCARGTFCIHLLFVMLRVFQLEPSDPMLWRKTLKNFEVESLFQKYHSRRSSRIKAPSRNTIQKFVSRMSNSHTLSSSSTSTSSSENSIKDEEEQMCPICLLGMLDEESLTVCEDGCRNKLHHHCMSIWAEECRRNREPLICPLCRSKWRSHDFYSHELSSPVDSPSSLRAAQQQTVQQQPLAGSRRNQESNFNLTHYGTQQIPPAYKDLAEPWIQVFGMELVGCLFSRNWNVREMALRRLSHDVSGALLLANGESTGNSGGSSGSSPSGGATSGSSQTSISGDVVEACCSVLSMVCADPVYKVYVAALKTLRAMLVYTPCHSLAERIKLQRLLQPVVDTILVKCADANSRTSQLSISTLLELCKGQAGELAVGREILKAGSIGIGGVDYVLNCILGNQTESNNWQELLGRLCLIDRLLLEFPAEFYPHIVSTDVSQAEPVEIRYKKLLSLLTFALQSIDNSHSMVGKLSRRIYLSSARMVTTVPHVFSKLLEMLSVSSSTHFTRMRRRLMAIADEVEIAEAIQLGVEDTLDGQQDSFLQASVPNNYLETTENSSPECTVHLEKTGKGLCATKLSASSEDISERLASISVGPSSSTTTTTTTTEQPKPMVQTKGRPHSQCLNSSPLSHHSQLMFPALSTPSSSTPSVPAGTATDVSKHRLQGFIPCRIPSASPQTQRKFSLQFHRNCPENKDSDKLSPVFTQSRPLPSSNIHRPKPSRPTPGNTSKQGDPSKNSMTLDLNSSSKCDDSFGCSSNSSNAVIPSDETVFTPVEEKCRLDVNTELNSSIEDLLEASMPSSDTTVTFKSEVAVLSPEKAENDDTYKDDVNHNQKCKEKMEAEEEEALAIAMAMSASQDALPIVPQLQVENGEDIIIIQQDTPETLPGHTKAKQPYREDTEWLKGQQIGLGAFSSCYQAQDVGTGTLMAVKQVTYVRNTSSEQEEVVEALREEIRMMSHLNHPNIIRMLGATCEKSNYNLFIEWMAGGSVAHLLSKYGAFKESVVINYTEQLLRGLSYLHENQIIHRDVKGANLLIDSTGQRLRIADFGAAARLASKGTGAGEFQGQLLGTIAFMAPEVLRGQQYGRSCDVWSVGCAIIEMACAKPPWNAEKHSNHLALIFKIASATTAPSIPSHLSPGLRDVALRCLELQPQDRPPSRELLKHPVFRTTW

[7] = molecular target: T2, Receptor-interacting serine/threonine-protein kinase 1 (Homo sapiens) (UniProt Q13546); experiment: Selectivity interaction (KinomeScan (DiscoverX)) EUB0001049a RIPK1; conditions: at 1 µM
T2 sequence (whole entry): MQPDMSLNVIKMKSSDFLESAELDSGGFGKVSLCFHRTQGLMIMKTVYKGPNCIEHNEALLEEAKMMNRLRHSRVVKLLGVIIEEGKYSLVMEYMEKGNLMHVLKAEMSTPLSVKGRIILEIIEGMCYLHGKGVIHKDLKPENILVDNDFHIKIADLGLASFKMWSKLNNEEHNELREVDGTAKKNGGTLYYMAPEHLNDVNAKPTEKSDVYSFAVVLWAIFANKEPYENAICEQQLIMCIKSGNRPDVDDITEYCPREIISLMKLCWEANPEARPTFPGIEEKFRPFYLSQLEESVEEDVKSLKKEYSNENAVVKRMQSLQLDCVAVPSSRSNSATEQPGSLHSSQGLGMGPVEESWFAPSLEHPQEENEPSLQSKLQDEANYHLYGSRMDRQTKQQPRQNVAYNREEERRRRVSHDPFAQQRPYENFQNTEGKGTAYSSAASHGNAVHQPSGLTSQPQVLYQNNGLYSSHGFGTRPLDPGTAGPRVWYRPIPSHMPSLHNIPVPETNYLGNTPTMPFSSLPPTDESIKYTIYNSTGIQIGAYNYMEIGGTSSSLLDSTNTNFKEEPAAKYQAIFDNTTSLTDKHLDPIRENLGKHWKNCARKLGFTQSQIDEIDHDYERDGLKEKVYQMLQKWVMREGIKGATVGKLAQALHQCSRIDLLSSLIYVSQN

Tyrosine-protein kinase JAK2, sequence (O60674 whole entry): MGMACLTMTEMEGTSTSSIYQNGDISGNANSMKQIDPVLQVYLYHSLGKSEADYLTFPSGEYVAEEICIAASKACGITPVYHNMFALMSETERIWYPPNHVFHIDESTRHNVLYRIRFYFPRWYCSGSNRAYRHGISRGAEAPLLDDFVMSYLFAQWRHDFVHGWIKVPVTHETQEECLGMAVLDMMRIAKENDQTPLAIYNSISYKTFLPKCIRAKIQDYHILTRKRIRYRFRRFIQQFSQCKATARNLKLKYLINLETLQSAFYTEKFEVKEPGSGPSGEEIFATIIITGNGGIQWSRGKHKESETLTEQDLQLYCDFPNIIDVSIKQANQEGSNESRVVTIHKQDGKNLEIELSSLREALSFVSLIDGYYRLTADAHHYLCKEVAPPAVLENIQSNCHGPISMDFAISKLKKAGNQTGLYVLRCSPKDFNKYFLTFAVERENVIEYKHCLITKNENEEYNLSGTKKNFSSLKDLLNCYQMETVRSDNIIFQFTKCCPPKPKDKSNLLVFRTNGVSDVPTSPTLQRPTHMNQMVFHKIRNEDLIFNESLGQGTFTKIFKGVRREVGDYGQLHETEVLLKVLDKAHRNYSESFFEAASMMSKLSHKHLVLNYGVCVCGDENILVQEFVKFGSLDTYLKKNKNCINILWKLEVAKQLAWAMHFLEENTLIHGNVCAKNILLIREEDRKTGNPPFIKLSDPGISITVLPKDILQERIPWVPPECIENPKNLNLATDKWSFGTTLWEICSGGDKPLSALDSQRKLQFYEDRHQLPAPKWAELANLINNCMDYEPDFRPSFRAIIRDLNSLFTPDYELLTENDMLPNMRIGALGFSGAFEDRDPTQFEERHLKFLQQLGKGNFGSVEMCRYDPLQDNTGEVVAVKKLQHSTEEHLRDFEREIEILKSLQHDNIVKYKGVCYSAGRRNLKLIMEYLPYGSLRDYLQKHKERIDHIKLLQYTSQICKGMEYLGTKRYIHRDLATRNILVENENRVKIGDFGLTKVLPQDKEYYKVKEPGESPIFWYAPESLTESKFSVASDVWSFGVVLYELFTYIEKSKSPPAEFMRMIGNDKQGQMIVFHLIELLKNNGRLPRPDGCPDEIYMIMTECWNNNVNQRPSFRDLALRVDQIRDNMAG

## CCc1cc(Nc2nccc(-c3c(-c4ccc(OC)c(C(=O)Nc5c(F)cccc5F)c4)nc4ccccn34)n2)c(OC)cc1N1CCC(N2CCN(S(C)(=O)=O)CC2)CC1
[1]
  pIC50: < 4.80

## CN(C)C/C=C/C(=O)Nc1ccc(C(=O)N2CCCC(Nc3ncc(Cl)c(-c4c[nH]c5ccccc45)n3)C2)cc1 (configuration not stated)
[2]
  % of control: 100%

## COCC(=O)NC/C=C/c1ccc2ncnc(Nc3ccc(Oc4ccc(C)nc4)c(C)c3)c2c1 [CP-724714]
[3]
  % of control: 100%

## Cc1cc([C@@H](C)Nc2ccccc2C(=O)O)c2nc(N3CCOCC3)cc(=O)n2c1 [AZD-6482]
[4]
  % of control: 98%

## CC[C@@H]1[C@H](F)C(=O)N[C@@H]1COc1nccc2cc(C(N)=O)c(OC)cc12 [ZIMLOVISERTIB]
[5]
  % of inhibition: 64.7%

## COc1cc(N(C)c2ccnc3ccc(C(F)(F)F)cc23)cc(OC)c1OC
[6]
  % binding: 74%

## COc1cc(Nc2nc(C)cc(-c3cnn4nc(OC)ccc34)n2)cc(C(F)(F)F)c1
[7]
  % of control: 93%
